Reference: paper PMC10139140, “Synthesis of Novel 2-(Cyclopentylamino)thiazol-4(5H)-one Derivatives with Potential Anticancer, Antioxidant, and 11β-HSD Inhibitory Activities” (International Journal of Molecular Sciences, 2023)
Entries after “also recorded” stand apart in the source; their conditions may differ.

Tests used:
U-118 MG cells [1] = test: Reactive oxygen species level (dihydroethidium probe), U-118 MG; assay type: cell-based; settings: 500 µM, 72 h
Procedure: (§1) The BJ (CRL-2522), Caco-2 (HTB-37), PANC-1 (CRL-1469), U-118 MG (HTB-15), SK-MEL-30 (ACC 151), and MDA-MB-231 (HTB-26) cell lines were purchased from ATCC (Manassas, VA, USA) or DSMZ (Braunschweig, GERMANY). Cells were cultured in accordance with manufacturers' recommendations in a DMEM, MEM, or RPMI-1640 (Sigma, Saint Louis, MO, USA; Gibco, Waltham, MA, USA), supplemented with 10% FBS, except for Caco-2 (20%) (Thermo Fisher Scientific, Waltham, MA, USA) and 1% antibiotic mix solution (penicillin, streptomycin; Thermo Fisher Scientific, Waltham, MA, USA) in a humidified atmosphere with 5% CO2 at 37 °C. All cell lines were cultured in T75 cell culture flasks or cell culture dishes to reach 80–90% confluency and seeded at a standard density of 5 × 10^3 cells/0.32 cm^2, except for BJ cells at 2 × 10^3 cells/0.32 cm^2.
(§2) The assay was performed following previously reported method. The cells (BJ, Caco-2, PANC-1, U-118 MG, SK-MEL-30, and MDA-MB-231) were seeded at an established density into 96-well black plates. Measurement of intracellular superoxide, nitric oxide, and free thiol levels were assessed with the use of fluorogenic probes: dihydroethidium (Cayman Chemical, Ann Arbor, MI, USA, #12013), DAF-2 diacetate (Cayman Chemical, Ann Arbor, MI, USA, #85165), and Thiol Tracker Violet (Thermo Scientific, Waltham, MA, USA, #T10095). After compound treatment (72 h), the cells were probed at a final concentration of 5 µM each for 15 min at 37 °C. Quantifications were taken with a BioTek–Synergy H1 microplate reader, and the results are presented as mean values + SD.

BJ cells [2] = test: Reactive oxygen species level (dihydroethidium probe), BJ; assay type: cell-based; settings: 500 µM, 72 h
Procedure: as §1, §2

MDA-MB-231 cells [3] = test: Reactive oxygen species level (dihydroethidium probe), MDA-MB-231; assay type: cell-based, human; settings: MDA-MB-231, 500 µM, 72 h
Procedure: as §1, §2

Caco-2 cells = test: Reactive oxygen species level (dihydroethidium probe), Caco-2; assay type: cell-based, human; settings: Caco-2, 500 µM, 72 h
Procedure: as §1, §2

U-118 MG cells [4] = test: Reactive nitrogen species level (DAF-2 diacetate probe), U-118 MG; assay type: cell-based; settings: 500 µM, 72 h
Procedure: as §1, §2

MDA-MB-231 cells [5] = test: Reactive nitrogen species level (DAF-2 diacetate probe), MDA-MB-231; assay type: cell-based, human; settings: MDA-MB-231, 500 µM, 72 h
Procedure: as §1
as §2, with “The cells (BJ, Caco-2, PANC-1, U-118 MG, SK-MEL-30, and MDA-MB-231) were seeded at an established density into 96-well black plates.” left out, “After compound treatment (72 h), the cells were probed at a final concentration of 5 µM each for 15 min at 37 °C.” left out

[6] = test system: all cell lines tested (BJ, Caco-2, PANC-1, U-118 MG, SK-MEL-30, MDA-MB-231); test: Reduced glutathione level (Thiol Tracker Violet probe), all cell lines tested; assay type: cell-based; settings: 500 µM, 72 h
Procedure: as §1
as §2, with “The cells (BJ, Caco-2, PANC-1, U-118 MG, SK-MEL-30, and MDA-MB-231) were seeded at an established density into 96-well black plates.” left out, “After compound treatment (72 h), the cells were probed at a final concentration of 5 µM each for 15 min at 37 °C.” left out

BJ cells [7] = test: Reactive nitrogen species level (DAF-2 diacetate probe), BJ; assay type: cell-based; settings: 500 µM, 72 h
Procedure: as §1
as §2, with “The cells (BJ, Caco-2, PANC-1, U-118 MG, SK-MEL-30, and MDA-MB-231) were seeded at an established density into 96-well black plates.” left out, “After compound treatment (72 h), the cells were probed at a final concentration of 5 µM each for 15 min at 37 °C.” left out

PANC-1 cells = test: Reactive nitrogen species level (DAF-2 diacetate probe), PANC-1; assay type: cell-based, human; settings: PANC-1, 500 µM, 72 h
Procedure: as §1
as §2, with “The cells (BJ, Caco-2, PANC-1, U-118 MG, SK-MEL-30, and MDA-MB-231) were seeded at an established density into 96-well black plates.” left out, “After compound treatment (72 h), the cells were probed at a final concentration of 5 µM each for 15 min at 37 °C.” left out

SMILES: O=C1N=C(NC2CCCC2)SC12CCC2 [Compound 3i, 6-(cyclopentylamino)-5-thia-7-azaspiro[3.4]oct-6-en-8-one]
- level of reactive oxygen species (ROS) (U-118 MG cells [1]): high increase
- level of reactive oxygen species (ROS) (BJ cells [2]): increase
- level of reactive oxygen species (ROS) (MDA-MB-231 cells [3]): increase
- level of reactive oxygen species (ROS) (Caco-2 cells): high increase

SMILES: CC1SC(NC2CCCC2)=NC1=O (centres unmarked) [Compound 3a, 2-(cyclopentylamino)-5-methylthiazol-4(5H)-one]
- level of reactive oxygen species (ROS) (U-118 MG cells [1]): high increase
- level of reactive nitrogen species (RNS) (U-118 MG cells [4]): increase
- level of reactive nitrogen species (RNS) (MDA-MB-231 cells [5]): increase

SMILES: O=C1N=C(NC2CCCC2)SC1c1ccc(Br)cc1 (centres unmarked) [Compound 3g, 2-(cyclopentylamino)-5-(4-bromophenyl)thiazol-4(5H)-one]
- level of reduced glutathione [6]: low level; also recorded: especially strong reduction
- level of reactive oxygen species (ROS) (BJ cells [2]): increase
- level of reactive oxygen species (ROS) (MDA-MB-231 cells [3]): increase
- level of reactive oxygen species (ROS) (Caco-2 cells): high increase

SMILES: CC(C)C1SC(NC2CCCC2)=NC1=O (centres unmarked) [Compound 3d, 2-(cyclopentylamino)-5-isopropylthiazol-4(5H)-one]
- level of reactive nitrogen species (RNS) (U-118 MG cells [4]): increase

SMILES: CCC1SC(NC2CCCC2)=NC1=O (centres unmarked) [Compound 3b, 2-(cyclopentylamino)-5-ethylthiazol-4(5H)-one]
- level of reactive oxygen species (ROS) (U-118 MG cells [1]): high increase
- level of reactive oxygen species (ROS) (Caco-2 cells): high increase
- level of reactive nitrogen species (RNS) (BJ cells [7]): increase

SMILES: O=C1N=C(NC2CCCC2)SC12CCCCC2 [Compound 3h, 2-(cyclopentylamino)-1-thia-3-azaspiro[4.5]dec-2-en-4-one]
- level of reactive oxygen species (ROS) (U-118 MG cells [1]): high increase
- level of reactive oxygen species (ROS) (BJ cells [2]): increase
- level of reactive oxygen species (ROS) (MDA-MB-231 cells [3]): increase
- level of reactive nitrogen species (RNS) (U-118 MG cells [4]): increase

SMILES: CC1(C)SC(NC2CCCC2)=NC1=O [Compound 3e, 2-(cyclopentylamino)-5,5-dimethylthiazol-4(5H)-one]
- level of reactive oxygen species (ROS) (U-118 MG cells [1]): high increase
- level of reactive oxygen species (ROS) (Caco-2 cells): high increase
- level of reactive nitrogen species (RNS) (PANC-1 cells): increase

SMILES: CCCC1SC(NC2CCCC2)=NC1=O (centres unmarked) [Compound 3c, 2-(cyclopentylamino)-5-propylthiazol-4(5H)-one]
- level of reactive oxygen species (ROS) (Caco-2 cells): high increase
